Laboratory results published in PMC7467771, “Lipophilic Arginine Esters: The Gateway to Preservatives without Side Effects” (Molecular Pharmaceutics, 2020).
Like-named read-outs stand apart in the source and are kept apart here.

Legend:
[1] = octanol/water partition coefficient (log P) by TNBS assay; type: physicochemical; settings: octanol/water mixture 1:1 v/v; mean, n = 3
Procedure: Log P of Arg and both Arg-esters were determined using an already described method.[15] Each compound was dissolved in an octanol/water mixture (1:1, v/v). Afterward, octanol and water phases were separated by a high-speed mini centrifuge (Fisher Scientific, Illinois USA), and the concentration of each compound in each phase was determined by the TNBS assay. For this, a 50 μL volume from each phase was diluted 10 times with 0.1 M sodium bicarbonate (pH 8.5) containing 40% (v/v) isopropyl alcohol. After dilution, 250 μL of the TNBS reagent (0.01%, v/v) prepared in 0.1 M sodium bicarbonate (pH 8.5) was added to each sample that was incubated at 37 °C. After 2 h, the reaction was stopped by adding 250 μL of 10% (m/v) SDS and 125 μL of 1 M HCl. The absorbance of each sample was measured at 335 nm using a Spark multifunctional microplate reader (Tecan Austria, GmbH). The logarithm of the octanol/water absorbance ratio was expressed as log P for each sample.

red blood cells = settings: cited from earlier work
E. coli = settings: against E. coli; cited from earlier work
Caco-2 cells = assay: resazurin assay, cytotoxicity; type: cell-based; settings: Caco-2, 4 h incubation; for EC50 (concentration causing 50% cell death): calculated from cell viability data
Procedure: The resazurin assay was used to determine the cytotoxic potential of Arg-esters according to a previous method with some minor modifications.[15] Caco-2 cells were seeded in a 24-well cell culture plate at 25 000 cells per well density and kept in an incubator at 37 °C under a 95% relative humidity environment and 5% CO2 level. Minimum essential medium (MEM) supplemented with streptomycin (0.1 mg […]), penicillin (100 units […]), and fetal calf serum (FCS) 10% (v/v) was used for growing cells. During a growth period of 14 days, the medium was replaced every other day. On the day of the experiment, test solutions of Arg-OL and Arg-DT esters were prepared in 25 mM HBS (HEPES buffered saline) buffer (pH 7.4) in the concentration range of 1000–3000 μg mL^–1. For comparison, the same concentrations of BAC and cetrimide were also prepared in HBS. HBS without any addition was used as a positive control, and Triton X-100 (2%, v/v) in HBS was used as a negative control. The growth medium from all wells of the cell culture plate was removed, and cells were washed three times with HBS preheated at 37 °C. Each test solution and controls were then added to individual wells in a volume of 500 μL, and the cell culture plate was incubated under the same conditions. After 4 h, the solution from each well was removed, and cells were washed with HBS (pH 7.4) preheated at 37 °C. Then, 500 μL of resazurin (2.2 mM) per well was added and incubated for further 3 h under the same conditions. Afterward, the fluorescence of the supernatant from each well was measured at the excitation wavelength of 540 nm and an emission wavelength of 590 nm. Cell viability was calculated by the equation: [drawing 4]

[2] = system: Bacillus subtilis ATCC 6633; assay: disk diffusion method; type: cell-based; settings: test solution 10 mg mL^–1, disks about 6 mm, overnight 37 °C
Procedure: (§1) Following bacterial strains were used for antimicrobial susceptibility testing: Escherichia coli ATCC 25922, Staphylococcus aureus ATCC 29213, Bacillus subtilis ATCC 6633, and Enterococcus faecalis ATCC 19433, which were obtained from the American Type Culture Collection (ATCC, Virginia, USA).
(§2) The disk diffusion method was used for the initial assessment of the antimicrobial activity of Arg-esters. Mueller Hinton agar (MHA, Biomerieux) medium was prepared according to the manufacturer protocol and poured into Petri dishes. All testing microorganisms were dissolved in saline and set to a 0.5 McFarland standard turbidity. This corresponds to a bacterial concentration of 1.5 × 10^8 colony-forming units per milliliter (CFU mL^–1). The bacterial suspension was then swabbed over solidified MHA Petri dishes ensuring homogeneous distribution. The test solutions of Arg-OL, Arg-DT, BAC, and cetrimide were prepared in water with 10% (v/v) DMSO at a concentration of 10 mg mL^–1. Water with 10% (v/v) DMSO was used as a negative control. The diffusion disks of about 6 mm in diameter were prepared from Whatman filter paper. After immersing disks in the above-prepared test solutions, they were placed on MHA plates already swabbed with different bacteria. After overnight incubation of Petri dishes at 37 °C, clear zones of bacterial growth inhibition around disks were measured.

[3] = system: Enterococcus faecalis ATCC 19433; assay: disk diffusion method; type: cell-based; settings: test solution 10 mg mL^–1, disks about 6 mm, overnight 37 °C
Procedure: as §1, §2

[4] = system: Escherichia coli ATCC 25922; assay: disk diffusion method; type: cell-based; settings: test solution 10 mg mL^–1, disks about 6 mm, overnight 37 °C
Procedure: as §1, §2

[5] = system: Staphylococcus aureus ATCC 29213; assay: disk diffusion method; type: cell-based; settings: test solution 10 mg mL^–1, disks about 6 mm, overnight 37 °C
Procedure: as §1, §2

[6] = system: Bacillus subtilis ATCC 6633; assay: MIC testing by the microdilution method; type: cell-based; settings: microdilution, overnight 37 °C, tested 5000 to 5 μg mL^–1
Procedure: as §1
(§3) The MIC is the lowest concentration of a substance that leads to a clearly visible growth inhibition after a defined incubation period. To evaluate the MIC of Arg-DT, Arg-OL, BAC, and cetrimide, a microdilution test was performed according to the guidelines of the Clinical and Laboratory Standards Institute.[19] First of all, similarly, as for the disk diffusion test, microorganisms were dissolved in saline and set to a 0.5 McFarland standard turbidity. This corresponds to a bacterial concentration of 1.5 × 10^8 colony-forming units per milliliter (CFU mL^–1); 50 μL of the bacterial suspension was added to 10 mL of Mueller Hinton Bouillon (MHB, Becton Dickinson, New Jersey, USA). The stock solutions were prepared as follows: the test compounds Arg-OL, Arg-DT, BAC, and cetrimide were dissolved in water with 10% (v/v) DMSO at a concentration of 10 mg mL^–1. The obtained solutions were used to prepare serial dilutions. The tested concentration for each substance ranged from 5000 to 5 μg mL^–1. Each test sample was added to a flat-bottomed tissue plate well in the volume of 75 μL. The first well of the tissue plate containing 75 μL of water with 10% (v/v) DMSO instead of any test sample was used as a positive control. Finally, 75 μL of the bacterial suspension was added to each well, and the plates were incubated at 37 °C overnight.
(§4) Before measuring the optical density (OD), plates were shaken for 15 min at 250 rpm. The OD was measured using the Bio-Rad 680 microplate reader (Hercules, California, USA) at a wavelength of 490 nm. Inhibition of bacterial growth was defined as a reduction of growth for at least 5 log units. Experiments were performed three times under analogous conditions for each bacterial strain and each tested sample.

[7] = system: Enterococcus faecalis ATCC 19433; assay: MIC testing by the microdilution method; type: cell-based; settings: microdilution, overnight 37 °C, tested 5000 to 5 μg mL^–1
Procedure: as §1, §3, §4

[8] = system: Escherichia coli ATCC 25922; assay: MIC testing by the microdilution method; type: cell-based; settings: microdilution, overnight 37 °C, tested 5000 to 5 μg mL^–1
Procedure: as §1, §3, §4

[9] = system: Staphylococcus aureus ATCC 29213; assay: MIC testing by the microdilution method; type: cell-based; settings: microdilution, overnight 37 °C, tested 5000 to 5 μg mL^–1
Procedure: as §1, §3, §4

red blood cells (RBC) = assay: hemolysis study; type: cell-based; settings: human RBC, 1 h, 37 °C, PBS pH 7.4
Procedure: The hemolysis test was performed with red blood cells (RBC) to evaluate the potential toxic effect of Arg-surfactants on human cells.[18] Human RBC concentrate was kindly donated by the Tirol Kliniken GmbH, Innsbruck, Austria, and stored at 4 °C until use. RBC concentrate (0.556 mL) was freshly diluted by adding sterile Dulbecco’s PBS (pH 7.4) (1.944 mL) before the test to obtain an equivalent amount of whole blood (EWB). Then EWB was 50 times diluted in sterile Dulbecco’s PBS (pH 7.4). The diluted blood on visual inspection was turbid and settled down upon leaving undisturbed, indicating no cell lysis. Arg-surfactant stock solutions were prepared in the concentration range of 10–5000 μg mL^–1 in PBS. For comparison, BAC and cetrimide solutions were prepared in the same concentration range in PBS. For the assay, 10 μL of each test sample was mixed with 190 μL of diluted blood, resulting in the testing final concentrations of 0.5–250 μg mL^–1. For the positive control, 10 μL of 20% v/v Triton X-100 and, for the negative control, 10 μL of sterile Dulbecco’s PBS were mixed with 190 μL of diluted blood. All samples and controls were incubated for 1 h at 37 °C with shaking. After centrifugation at 10 000 rpm for 60 s, aliquots of 100 μL were withdrawn from the supernatants and transferred to a 96-well plate. Absorbance was measured at a wavelength of 420 nm. The extent of hemolysis as a percentage was determined by using the following equation: [drawing 6]

Row | Molecule | EC50 (concentration causing 50% cell death) (Caco-2 cells) | zones of inhibition [2] | zones of inhibition [3] | zones of inhibition [4] | zones of inhibition [5] | minimum inhibitory concentration [6] | minimum inhibitory concentration [7] | minimum inhibitory concentration [8] | minimum inhibitory concentration [9] | other results
1 | N=C(N)NCCC[C@H](N)C(=O)O [arginine, L-Arginine] | – | – | – | – | – | – | – | – | – | logP [1]: -1.9
2 | CCCCCC(=O)N[C@@H](CCCNC(=N)N)C(=O)OC [CAM, caproyl arginine methyl ester] | – | – | – | – | – | – | – | – | – | HC50 (red blood cells; reported in the literature): 38.5 μg mL^–1
3 | CCCCCCCCCCCC(=O)N[C@@H](CCCNC(=N)N)C(=O)OC [LAM, lauroyl arginine methyl ester] | – | – | – | – | – | – | – | – | – | MIC (E. coli): 128 μg mL^–1; HC50 (red blood cells): 20.8 μg mL^–1
4 | benzalkonium chloride [BAC, reference compound] | 20 μg mL^–1 | 23 mm | 20 mm | 19 mm | 21 mm | 5 μg mL^–1 | 5 μg mL^–1 | 10 μg mL^–1 | 5 μg mL^–1 | –
5 | cetrimide [reference compound] | 20 μg mL^–1 | 19 mm | 19 mm | 12 mm | 19 mm | 5 μg mL^–1 | 5 μg mL^–1 | 20 μg mL^–1 | 5 μg mL^–1 | cell viability (Caco-2 cells; all tested concentrations (1000–3000 μg mL^–1)): < 10%; HC50 (concentration causing lysis of 50% red blood cells) (red blood cells (RBC)): 23 μg mL^–1
6 | CCCCCCCC(=O)N[C@@H](CCCNC(=N)N)C(=O)OCC [Nα-octanoyl arginine ethyl ester] | – | – | – | – | – | – | – | – | – | MIC (not effective at the highest tested concentration) (E. coli): > 256 μg mL^–1
